In patent publication US20210300940A1 (Merck Patent GmbH, priority 2018, published 2021) one finds IC50 data, which are given here for 21 molecules.

For experiment [1], the target named is T1, TLR8 (Homo sapiens, UniProt Q9NR97).
T1 construct: expressed in transfected cells; host or cells: HEK/293 reporter cells (NF-kB luciferase)
T1 sequence (Q9NR97 27-1041): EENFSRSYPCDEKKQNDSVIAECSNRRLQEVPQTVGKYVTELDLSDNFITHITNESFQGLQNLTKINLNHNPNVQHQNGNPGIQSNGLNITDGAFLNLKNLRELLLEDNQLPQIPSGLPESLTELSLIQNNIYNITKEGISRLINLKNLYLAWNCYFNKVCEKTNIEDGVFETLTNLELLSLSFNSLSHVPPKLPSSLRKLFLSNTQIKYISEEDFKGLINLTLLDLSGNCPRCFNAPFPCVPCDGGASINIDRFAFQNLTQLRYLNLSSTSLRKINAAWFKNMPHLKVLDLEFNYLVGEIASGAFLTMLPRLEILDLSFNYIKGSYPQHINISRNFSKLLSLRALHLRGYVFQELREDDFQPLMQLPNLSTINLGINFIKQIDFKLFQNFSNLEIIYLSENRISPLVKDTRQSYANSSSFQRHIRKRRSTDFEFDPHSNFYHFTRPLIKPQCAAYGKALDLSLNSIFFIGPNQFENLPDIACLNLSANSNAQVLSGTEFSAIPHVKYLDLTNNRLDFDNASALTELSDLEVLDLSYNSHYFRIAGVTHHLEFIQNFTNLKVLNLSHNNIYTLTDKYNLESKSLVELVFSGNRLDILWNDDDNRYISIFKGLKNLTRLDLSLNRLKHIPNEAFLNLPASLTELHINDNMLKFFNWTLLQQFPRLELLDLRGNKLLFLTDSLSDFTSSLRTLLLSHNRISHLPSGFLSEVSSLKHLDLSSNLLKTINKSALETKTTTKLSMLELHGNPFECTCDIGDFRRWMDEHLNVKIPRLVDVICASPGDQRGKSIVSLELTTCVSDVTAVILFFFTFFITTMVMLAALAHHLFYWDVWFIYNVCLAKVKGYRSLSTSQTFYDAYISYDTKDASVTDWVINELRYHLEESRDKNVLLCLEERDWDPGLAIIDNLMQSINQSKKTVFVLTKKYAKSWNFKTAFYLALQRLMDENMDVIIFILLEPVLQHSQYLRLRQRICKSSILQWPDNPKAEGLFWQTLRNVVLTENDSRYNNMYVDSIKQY
Description: HEK/293 TLR8 Cell Assay. Conditions: HEK cells, R848 agonist 30 uM final concentration, Steady-Glo readout; read-out: TLR8 potency. In kind it is cell-based.

In experiment [2] the target is T2, TLR7 (Homo sapiens, UniProt Q9NYK1).
T2 construct: expressed in transfected cells; host or cells: HEK/293 cells carrying TLR7 and an NF-kB luciferase reporter
T2 sequence (Q9NYK1 27-1049): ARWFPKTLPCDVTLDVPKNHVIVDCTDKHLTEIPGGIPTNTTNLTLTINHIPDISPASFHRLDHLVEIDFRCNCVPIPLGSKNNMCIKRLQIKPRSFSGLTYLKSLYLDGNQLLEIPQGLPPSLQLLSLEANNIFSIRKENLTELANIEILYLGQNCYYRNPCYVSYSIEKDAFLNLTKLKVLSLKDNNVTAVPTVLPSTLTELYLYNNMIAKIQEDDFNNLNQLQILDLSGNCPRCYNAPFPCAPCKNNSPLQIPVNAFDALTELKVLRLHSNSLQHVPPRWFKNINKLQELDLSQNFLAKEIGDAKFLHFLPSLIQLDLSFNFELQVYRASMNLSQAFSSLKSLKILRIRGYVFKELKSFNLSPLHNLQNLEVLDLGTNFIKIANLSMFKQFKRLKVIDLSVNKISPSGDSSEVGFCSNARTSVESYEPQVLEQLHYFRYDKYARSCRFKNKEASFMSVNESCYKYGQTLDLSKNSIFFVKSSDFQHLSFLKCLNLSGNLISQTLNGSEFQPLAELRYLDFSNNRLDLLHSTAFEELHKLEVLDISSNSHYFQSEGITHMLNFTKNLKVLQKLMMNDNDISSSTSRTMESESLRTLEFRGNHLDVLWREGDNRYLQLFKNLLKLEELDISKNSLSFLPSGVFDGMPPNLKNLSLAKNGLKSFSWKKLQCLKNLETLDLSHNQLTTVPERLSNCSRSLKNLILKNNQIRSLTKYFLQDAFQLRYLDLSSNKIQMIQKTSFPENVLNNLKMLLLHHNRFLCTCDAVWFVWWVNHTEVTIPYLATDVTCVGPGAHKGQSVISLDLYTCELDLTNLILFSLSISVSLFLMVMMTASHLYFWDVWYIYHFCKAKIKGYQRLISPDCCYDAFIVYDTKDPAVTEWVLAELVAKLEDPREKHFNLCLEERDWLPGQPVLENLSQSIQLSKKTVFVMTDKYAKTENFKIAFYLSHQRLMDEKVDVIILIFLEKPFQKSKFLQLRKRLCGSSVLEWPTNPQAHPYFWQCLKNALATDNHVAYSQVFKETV
Description: HEK/293 TLR7 Cell Assay. As to conditions: TLR7/NFKb HEK cells, R848 agonist 10 uM final concentration, Steady-Glo readout; read-out: TLR7 potency. The experiment is classed as cell-based. Summed up:
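TLR7/NF-κB reporter HEK293 cells, 5000/well, cultured 24 h, then preincubated 30 min with compound before R848 agonist (10 uM final). After 5 h stimulation, Steady-Glo luciferase luminescence read.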

SMILES strings stand for the structures. Structures can show the parent of a compound that is named as a salt.

`C[C@H]1C[C@@H](NCCNS(C)(=O)=O)CN(c2ccc(C(F)(F)F)c3nccnc23)C1` [Example 23, N-{2-[(3R,5S)-5-Methyl-1-(8-trifluoromethyl-quinoxalin-5-yl)-piperidin-3-ylamino]-ethyl}-methanesulfonamide]: the IC50 in experiment [1] and in experiment [2] was less than 75 nM in each case.
As for `N#Cc1ccc(N2C[C@H](NCCCS(N)(=O)=O)C[C@H](C(F)(F)F)C2)c2cccnc12` [Example 38, 3-[(3R,5S)-1-(8-Cyano-quinolin-5-yl)-5-trifluoromethyl-piperidin-3-ylamino]-propane-1-sulfonic acid amide], the figures for the IC50 in experiment [1] and in experiment [2] were 75 to 150 nM and greater than 150 nM, respectively.
Turning to `N#Cc1ccc(N2C[C@H](N)CC(F)(F)C2)c2cccnc12` (single isomer, unassigned) [Example 197], the IC50 in experiment [1] and in experiment [2] was less than 75 nM in each case.
As for `C[C@@H]1CN(c2ccc(C#N)c3nccnc23)C[C@H](CSC[C@@H](O)CO)O1` (single isomer, unassigned) [Example 230], the IC50 in experiment [1] and in experiment [2] was less than 75 nM throughout.
Regarding `C[C@@H]1CN(c2ccc(C#N)c3nccnc23)C[C@H](C(=O)NC2CCNCC2(F)F)O1` (stereo partly drawn) [Example 289, (2R,6R)-4-(8-Cyano-quinoxalin-5-yl)-6-methyl-morpholine-2-carboxylic acid (3,3-difluoro-piperidin-4-yl)-amide], the IC50 in experiment [1] and in experiment [2] was less than 75 nM each time.
Turning to `C[C@@H](C(=O)N[C@@H]1C[C@H](C(F)(F)F)CN(c2ccc(C#N)c3ncccc23)C1)N1CCN(C)CC1` (single isomer, unassigned) [Example 101], the IC50 in experiment [1] and in experiment [2] was less than 75 nM each time.
For the molecule `Cc1ccc(N2C[C@H](NC(=O)CC3CCN(C(C)C)CC3)C[C@H](C(F)(F)F)C2)c2cccnc12` [Example 109, 2-(1-Isopropyl-piperidin-4-yl)-N-[(3R,5S)-1-(8-methyl-quinolin-5-yl)-5-trifluoromethyl-piperidin-3-yl]-acetamide], the IC50 in experiment [1] was 75 to 150 nM; in experiment [2] it was greater than 150 nM.
For `N#Cc1ccc(N2C[C@H](NC(=O)CC3(N)CC3)C[C@H](C(F)(F)F)C2)c2nccnc12` [Example 119, 2-(1-aminocyclopropyl)-N-[(3R,5S)-1-(8-cyanoquinoxalin-5-yl)-5-(trifluoromethyl)piperidin-3-yl]acetamide], the IC50 was less than 75 nM in experiment [1] and 75 to 150 nM in experiment [2].
`CN1CCN(CC(=O)N[C@@H]2C[C@H](C(F)(F)F)CN(c3ccc(C#N)c4ncccc34)C2)CC1` [Example 82, N-((3R,5S)-1-(8-cyanoquinolin-5-yl)-5-(trifluoromethyl)piperidin-3-yl)-2-(4-methylpiperazin-1-yl)acetamide]: the IC50 is less than 75 nM in experiment [1] and 75 to 150 nM in experiment [2].
The corresponding values for `Cc1ccc(N2C[C@@H](C)C[C@@H](NC(=O)CC3(O)CCN(C)CC3)C2)c2cccnc12` [Example 85, 2-(4-hydroxy-1-methylpiperidin-4-yl)-N-[(3R,5S)-5-methyl-1-(8-methylquinolin-5-yl)piperidin-3-yl]acetamide hydrochloride] are less than 75 nM and less than 75 nM.
As to `C[C@H](O)CNC(=O)[C@@H]1CN(c2ccc(C#N)c3nccnc23)C[C@H](C(F)(F)F)O1` (single isomer, unassigned) [Example 287], the IC50 in experiment [1] and in experiment [2] was 75 to 150 nM throughout.
Consider `C[C@@H]1CN(c2ccc(C#N)c3ncncc23)C[C@H](C(=O)NC[C@H]2CN(C)CCO2)O1` [Example 267, (2R,6R)-4-(8-Cyano-quinazolin-5-yl)-6-methyl-morpholine-2-carboxylic acid ((S)-4-methyl-morpholin-2-ylmethyl)-amide], for which the IC50 in experiment [1] and in experiment [2] was less than 75 nM in each case.
On to `C[C@H]1C[C@@H](NCC2(O)CCOCC2)CN(c2ccc(C#N)c3nccnc23)C1` [Example 14, 8-{(3R,5S)-3-[(4-Hydroxy-tetrahydro-pyran-4-ylmethyl)-amino]-5-methyl-piperidin-1-yl}-quinoxaline-5-carbonitrile], for which the IC50 in experiment [1] and in experiment [2] was less than 75 nM each time.
`CCN(CC)CCO[C@@H]1C[C@H](C)CN(c2ccc(C#N)c3nccnc23)C1` [Example 6, 8-[(3R,5S)-3-[2-(diethylamino)ethoxy]-5-methylpiperidin-1-yl]quinoxaline-5-carbonitrile]: the IC50 in experiment [1] and in experiment [2] was less than 75 nM each time.
On to `C[C@H]1C[C@@H](NC(=O)[C@H](C)N2CCN(C)CC2)CN(c2ccc(C(F)(F)F)c3ncccc23)C1` (single isomer, unassigned) [Example 93], for which the IC50 in experiment [1] and in experiment [2] was less than 75 nM each time.
Consider `C[C@@H]1CN(c2ccc(C#N)c3nccnc23)C[C@H](C(=O)NC2CCC(=O)NC2=O)O1` (stereo partly drawn) [Example 236, (2R,6R)-4-(8-Cyano-quinoxalin-5-yl)-6-methyl-morpholine-2-carboxylic acid (2,6-dioxo-piperidin-3-yl)-amide], for which the IC50 in experiment [1] and in experiment [2] was 75 to 150 nM throughout.
As to `C[C@@H]1CN(c2ccc(C#N)c3nccnc23)C[C@H](C(=O)N[C@H]2CCN(CC3CC3)C2)O1` (single isomer, unassigned) [Example 322], the IC50 in experiment [1] and in experiment [2] was less than 75 nM throughout.
As to `CN(C)CCNC(=O)N[C@@H]1C[C@H](C(F)(F)F)CN(c2ccc(C#N)c3ncccc23)C1` [Example 143, 1-[(3R,5S)-1-(8-cyanoquinolin-5-yl)-5-(trifluoromethyl)piperidin-3-yl]-3-[2-(dimethylamino)ethyl]urea], the IC50 is 75 to 150 nM in experiment [1] and less than 75 nM in experiment [2].
In the case of `CN1CCC(O)(CC(=O)N[C@@H]2C[C@H](C(F)(F)F)CN(c3ccc(C(F)(F)F)c4nccnc34)C2)CC1` [Example 63, 2-(4-hydroxy-1-methylpiperidin-4-yl)-N-[(3R,5S)-5-(trifluoromethyl)-1-[8-(trifluoromethyl)quinoxalin-5-yl]piperidin-3-yl]acetamide], the IC50 in experiment [1] and in experiment [2] was less than 75 nM throughout.
On to `CC(C(=O)N[C@@H]1C[C@H](C)CN(c2ccc(C#N)c3nccnc23)C1)N1CCN(C)CC1` (single isomer, unassigned) [Example 90], for which the IC50 in experiment [1] and in experiment [2] was less than 75 nM throughout.
`C[C@@H]1CN(c2ccc(C#N)c3nccnc23)C[C@H](C(=O)N2CC(N3CC(C)(O)C3)C2)O1` [Example 235, 8-[(2R,6R)-2-(3-Hydroxy-3-methyl-[1,3′]biazetidinyl-1′-carbonyl)-6-methyl-morpholin-4-yl]-quinoxaline-5-carbonitrile]: the IC50 in experiment [1] and in experiment [2] was 75 to 150 nM in each case.
